According to patent publication US20260234101A1, “COMPOUNDS, THEIR COMPOSITION AND THEIR USE AS NEMATICIDES” (priority 2023, published 2026):

Legend:
[1] = tested on: Root-knot nematodes (Meloidogyne spp), juveniles (J2); assay: Nematocidal activity against root-knot nematodes, 24 well bioassay plate, percent mortality; type: in vivo; conditions: 70-100 J2 juveniles per well, 22±2° C., 70±5% RH, dead/inactive counted at 24, 48, 72 and 96 hours, read-out: Rating (% Mortality)
Description: The compound to be tested (4 mg) was dissolved in 40 μl of DMSO to make 100,000 PPM concentration stock solution. The clear solution was obtained by vortexing. The nematode suspension (250 μl) having 70-100 juveniles (J2) of Root-knot nematodes Meloidogyne spp. pipetted out to each cell of 24 well bioassay plate. Sterile water (1 ml) was pipetted out in fresh 2.5 ml Eppendorf micro-centrifuge tubes. The desired concentration (500 ppm) of the compound was prepared by adding stock solution in 2.5 ml Eppendorf micro-centrifuge tubes. For each treatment 4 replications were maintained. The bioassay plates were incubated at 22±2° C. and 70±5% RH in humidity chambers.

[2] = Stability studies: storage at room temperature and accelerated storage condition, purity estimated by HPLC; type: physicochemical; conditions: properly packed material; for purity estimated by HPLC, Day 14, Condition 54° C. ± 2° C. / purity estimated by HPLC, Day Zero, Condition 54° C. ± 2° C.: 54° C. ± 2° C. (accelerated storage)
Excerpt: The compounds of present invention were stored under conditions as shown in below table [room temperature and on accelerated storage condition (ATS)] and the purity was estimated by HPLC. The properly packed material was subjected to the conditions mentioned in the table below.

With `N=C(N)NCCC[C@H](/N=C/c1ccccc1C(F)(F)F)C(=O)O` [Example 1, (E)-N^2-{[2-(trifluoromethyl)phenyl]methylidene}-L-arginine] as the compound, how does the mortality at 500 ppm [1] read?
Its mortality at 500 ppm is 70 to 100%.

For `N=C(N)NCCC[C@H](/N=C/c1cccc(C(F)(F)F)c1)C(=O)O` [Example 2, (E)-N^2-{[3-(trifluoromethyl)phenyl]methylidene}-L-arginine], which mortality at 500 ppm [1] is on record?
Its mortality at 500 ppm is 70 to 100%.

What about the “purity estimated by HPLC, Day 14, Condition 25° C. ± 2° C.” value [2] of the same compound?
Its value is 99.70.

What about the “purity estimated by HPLC, Day 14, Condition 54° C. ± 2° C.” value [2] of the same compound?
The value was 99.55.

And the “purity estimated by HPLC, Day Zero, Condition 25° C. ± 2° C.” value [2]?
The value was 99.71.

And the “purity estimated by HPLC, Day Zero, Condition 54° C. ± 2° C.” value [2]?
Its value is 99.60.

Which mortality at 500 ppm [1] does the source give for `N=C(N)NCCC[C@H](/N=C/c1ccc(Cl)cc1O)C(=O)O` [Example 3, (E)-N^2-[(4-chloro-2-hydroxyphenyl)methylidene]-L-arginine] here?
Its mortality at 500 ppm is 50 to 69%.

Which mortality at 500 ppm [1] does the source give for `N=C(N)NCCC[C@H](/N=C/c1c(O)cccc1Cl)C(=O)O` [Example 4, (E)-N^2-[(6-chloro-2-hydroxyphenyl)methylidene]-L-arginine] here?
Its mortality at 500 ppm is 50 to 69%.

With `N=C(N)NCCC[C@H](/N=C/c1cccc(F)c1O)C(=O)O` [Example 5, (E)-N^2-[(3-fluoro-2-hydroxyphenyl)methylidene]-L-arginine] as the compound, how does the mortality at 500 ppm [1] read?
The mortality at 500 ppm was 70 to 100%.

For `N=C(N)NCCC[C@H](/N=C/c1ccc(F)cc1O)C(=O)O` [Example 6, (E)-N^2-[(4-fluoro-2-hydroxyphenyl)methylidene]-L-arginine], which mortality at 500 ppm [1] is on record?
The mortality at 500 ppm was 70 to 100%.

Which mortality at 500 ppm [1] does the source give for `N=C(N)NCCC[C@H](/N=C/c1cc(F)ccc1O)C(=O)O` [Example 7, (E)-N^2-[(5-fluoro-2-hydroxyphenyl)methylidene]-L-arginine] here?
Its mortality at 500 ppm is 70 to 100%.

Which mortality at 500 ppm [1] does the source give for `N=C(N)NCCC[C@H](/N=C/c1c(O)cccc1F)C(=O)O` [Example 8, (E)-N^2-[(6-fluoro-2-hydroxyphenyl)methylidene]-L-arginine] here?
Its mortality at 500 ppm is 70 to 100%.

Which mortality at 500 ppm [1] does the source give for `COc1cccc(/C=N/[C@@H](CCCNC(=N)N)C(=O)O)c1O` [Example 9, (E)-N^2-[(2-hydroxy-3-methoxyphenyl)methylidene]L-arginine] here?
Its mortality at 500 ppm is 0 to 49%.

For `COc1ccc(O)c(/C=N/[C@@H](CCCNC(=N)N)C(=O)O)c1` [Example 10, (E)-N^2-[(2-hydroxy-5-methoxyphenyl)methylidene]-L-arginine], which mortality at 500 ppm [1] is on record?
The mortality at 500 ppm was 50 to 69%.

Which results are given for `COc1cccc(O)c1/C=N/[C@@H](CCCNC(=N)N)C(=O)O` [Example 11, (E)-N^2-[(2-hydroxy-6-methoxyphenyl)methylidene]-L-arginine]?
mortality at 500 ppm [1]: 70 to 100%; purity estimated by HPLC, Day 14, Condition 25° C. ± 2° C. [2]: 99.00; purity estimated by HPLC, Day 14, Condition 54° C. ± 2° C. [2]: 98.85; purity estimated by HPLC, Day Zero, Condition 25° C. ± 2° C. [2]: 99.10; purity estimated by HPLC, Day Zero, Condition 54° C. ± 2° C. [2]: 99.20

With `Cc1cc(O)cc(O)c1/C=N/[C@@H](CCCNC(=N)N)C(=O)O` [Example 12, (E)-N^2-[(2,4-dihydroxy-6-methylphenyl)methylidene]-L-arginine] as the compound, how does the mortality at 500 ppm [1] read?
Its mortality at 500 ppm is 0 to 49%.

Which mortality at 500 ppm [1] does the source give for `COc1ccc(/C=N/[C@@H](CCCNC(=N)N)C(=O)O)c(OC)c1` [Example 13, (E)-N^2-[(2,4-dimethoxyphenyl)methylidene]-L-arginine] here?
Its mortality at 500 ppm is 0 to 49%.

With `N=C(N)NCCC[C@H](/N=C/c1cc(OC(F)(F)F)ccc1O)C(=O)O` [Example 14, (E)-N^2-{[2-hydroxy-5-(trifluoromethoxy)phenyl]methylidene}-L-arginine] as the compound, how does the mortality at 500 ppm [1] read?
The mortality at 500 ppm was 50 to 69%.

For `N=C(N)NCCC[C@H](/N=C/c1cc(F)cc(Cl)c1O)C(=O)O` [Example 15, (E)-N^2-[(3-chloro-5-fluoro-2-hydroxyphenyl)methylidene]-L-arginine], which mortality at 500 ppm [1] is on record?
Its mortality at 500 ppm is 0 to 49%.

Which mortality at 500 ppm [1] does the source give for `COc1ccc(/C=N/[C@@H](CCCNC(=N)N)C(=O)O)cc1` [Example 16, (E)-N^2-[(4-methoxyphenyl)methylidene]-L-arginine] here?
The mortality at 500 ppm was 70 to 100%.

With `COc1ccc(/C=N/[C@@H](CCCNC(=N)N)C(=O)O)cc1O` [Example 17, (E)-N^2-[(3-hydroxy-4-methoxyphenyl)methylidene]-L-arginine] as the compound, how does the mortality at 500 ppm [1] read?
The mortality at 500 ppm was 0 to 49%.

Which mortality at 500 ppm [1] does the source give for `COc1ccc(/C=N/[C@@H](CCCNC(=N)N)C(=O)O)cc1Cl` [Example 18, (E)-N^2-[(3-chloro-4-methoxyphenyl)methylidene]-L-arginine] here?
The mortality at 500 ppm was 50 to 69%.

Which mortality at 500 ppm [1] does the source give for `CSc1ccc(/C=N/[C@@H](CCCNC(=N)N)C(=O)O)cc1` [Example 19, (E)-N^2-{[4-(methylsulfanyl)phenyl]methylidene}-L-arginine] here?
The mortality at 500 ppm was 50 to 69%.

With `C=CCc1cc(/C=N/[C@@H](CCCNC(=N)N)C(=O)O)c(O)c(OC)c1` [Example 20, (E)-N^2-{[2-hydroxy-3-methoxy-5-(prop-2-en-1-yl)phenyl]methylidene}-L-arginine] as the compound, how does the mortality at 500 ppm [1] read?
Its mortality at 500 ppm is 70 to 100%.

With `C=CCc1cc(/C=N/[C@@H](CCCNC(=N)N)C(=O)O)c(OC)c(OC)c1` [Example 21, (E)-N^2-{[2,3-dimethoxy-5-(prop-2-en-1-yl)phenyl]methylidene}-L-arginine] as the compound, how does the mortality at 500 ppm [1] read?
The mortality at 500 ppm was 70 to 100%.

Which results are given for `C=CCc1cccc(/C=N/[C@@H](CCCNC(=N)N)C(=O)O)c1O` [Example 22, (E)-N2-{[2-hydroxy-3-(prop-2-en-1-yl)phenyl]methylidene}-L-arginine]?
mortality at 500 ppm [1]: 70 to 100%; purity estimated by HPLC, Day 14, Condition 25° C. ± 2° C. [2]: 99.50; purity estimated by HPLC, Day 14, Condition 54° C. ± 2° C. [2]: 99.30; purity estimated by HPLC, Day Zero, Condition 25° C. ± 2° C. [2]: 99.60; purity estimated by HPLC, Day Zero, Condition 54° C. ± 2° C. [2]: 99.63

For `N=C(N)NCCC[C@H](/N=C/c1c[nH]c2ccccc12)C(=O)O` [Example 23, (E)-N^2-[(1H-indol-3-yl)methylidene]-L-arginine], which mortality at 500 ppm [1] is on record?
Its mortality at 500 ppm is 50 to 69%.

With `N=C(N)NCCC[C@H](/N=C/c1ccc2c(c1)OCO2)C(=O)O` [Example 24, (E)-N^2-[(2H-1,3-benzodioxol-5-yl)methylidene]-L-arginine] as the compound, how does the mortality at 500 ppm [1] read?
The mortality at 500 ppm was 50 to 69%.

And the “purity estimated by HPLC, Day 14, Condition 25° C. ± 2° C.” value [2]?
Its value is 98.80.

What about the “purity estimated by HPLC, Day 14, Condition 54° C. ± 2° C.” value [2] of the same compound?
Its value is 98.90.

What about the “purity estimated by HPLC, Day Zero, Condition 25° C. ± 2° C.” value [2] of the same compound?
The value was 98.90.

What about the “purity estimated by HPLC, Day Zero, Condition 54° C. ± 2° C.” value [2] of the same compound?
Its value is 98.75.

With `N=C(N)NCCC[C@H](/N=C/c1ccco1)C(=O)O` [Example 25, (E)-N^2-[(furan-2-yl)methylidene]-L-arginine] as the compound, how does the mortality at 500 ppm [1] read?
Its mortality at 500 ppm is 70 to 100%.

What does the source list for `Cc1ccc(/C=N/[C@@H](CCCNC(=N)N)C(=O)O)o1` [Example 26, (E)-N^2-[(5-methylfuran-2-yl)methylidene]-L-arginine]?
mortality at 500 ppm [1]: 70 to 100%; purity estimated by HPLC, Day 14, Condition 25° C. ± 2° C. [2]: 99.10; purity estimated by HPLC, Day 14, Condition 54° C. ± 2° C. [2]: 99.00; purity estimated by HPLC, Day Zero, Condition 25° C. ± 2° C. [2]: 99.20; purity estimated by HPLC, Day Zero, Condition 54° C. ± 2° C. [2]: 99.00

With `N=C(N)NCCC[C@H](/N=C/c1ccc(CO)o1)C(=O)O` [Example 27, (E)-N^2-{[5-(hydroxymethyl)furan-2-yl]methylidene}-L-arginine] as the compound, how does the mortality at 500 ppm [1] read?
Its mortality at 500 ppm is 50 to 69%.

Which mortality at 500 ppm [1] does the source give for `N=C(N)NCCC[C@H](/N=C/c1cccc2ccccc12)C(=O)O` [Example 28, (E)-N2-[(naphthalen-1-yl)methylidene]-L-arginine] here?
Its mortality at 500 ppm is 50 to 69%.

With `N=C(N)NCCC[C@H](/N=C/c1cccnc1)C(=O)O` [Example 29, (E)-N2-[(pyridin-3-yl)methylidene]-L-arginine] as the compound, how does the mortality at 500 ppm [1] read?
The mortality at 500 ppm was 50 to 69%.

For `N=C(N)NCCC[C@H](/N=C/c1ccc2ccccc2c1)C(=O)O` [Example 30, (E)-N2-[(naphthalen-2-yl)methylidene]-L-arginine], which mortality at 500 ppm [1] is on record?
The mortality at 500 ppm was 70 to 100%.

And the “purity estimated by HPLC, Day 14, Condition 25° C. ± 2° C.” value [2]?
Its value is 99.65.

What about the “purity estimated by HPLC, Day 14, Condition 54° C. ± 2° C.” value [2] of the same compound?
The value was 99.45.

And the “purity estimated by HPLC, Day Zero, Condition 25° C. ± 2° C.” value [2]?
The value was 99.70.

And the “purity estimated by HPLC, Day Zero, Condition 54° C. ± 2° C.” value [2]?
Its value is 99.65.

For `N=C(N)NCCC[C@H](/N=C/c1ccsc1)C(=O)O` [Example 31, (E)-N2-[(thiophen-3-yl)methylidene]-L-arginine], which mortality at 500 ppm [1] is on record?
The mortality at 500 ppm was 50 to 69%.

For `C=CCc1cccc(/C=N/[C@@H](CCCNC(=N)N)C(=O)O)c1OC` [Example 32, (E)-N2-{[2-methoxy-3-(prop-2-en-1-yl)phenyl]methylidene}-L-arginine], which mortality at 500 ppm [1] is on record?
The mortality at 500 ppm was 50 to 69%.

For `COc1cc(/C=N/[C@@H](CCCNC(=N)N)C(=O)O)cc2c1OCO2` [Example 33, (E)-N2-[(7-methoxy-2H-1,3-benzodioxol-5-yl)methylidene]-L-arginine], which mortality at 500 ppm [1] is on record?
The mortality at 500 ppm was 50 to 69%.

For `N=C(N)NCCC[C@H](/N=C/c1cccc2c1OCO2)C(=O)O` [Example 34, (E)-N2-[(2H-1,3-benzodioxol-4-yl)methylidene]-L-arginine], which mortality at 500 ppm [1] is on record?
The mortality at 500 ppm was 50 to 69%.
